Assay results from US20130023555A1, “KINASE INHIBITOR WITH IMPROVED SOLUBILITY PROFILE” (Abbott Laboratories, priority 2011, published 2013).
Values after ≈ are worked out from the molar mass of the structure shown.

Experiments:
[1] = CLND Solubility Assay; format: physicochemical; settings: aqueous buffer, kinetic from dmso stock; 35 μM compound in 10 mM phosphate buffer, pH 7.2
Description: Chemiluminescent nitrogen detection (CLND) method oxidized the analyte to nitrogen oxide that reacted with ozone to provide a photon of light and was a measure of how much compound was in solution. Compounds must contain nitrogens for this experiment. Nitrogen impurities present in the compound will cause falsely high results. • 1. Compound concentration tested was 35 μM in 10 mM phosphate buffer, 7.2. • 2. Compounds were tested in triplicate. • 3. Compound concentration was determined by comparing readings to a caffeine standard curve. One standard curve was run before and after every test plate. For 3 test plates, four standard curves were generated.
Experimental Procedure: • 1. 5 μl of 5 mM test compound in DMSO was added to three adjacent wells in a plate. • 2. 695 μl of 10 mM phosphate buffer, pH 7.2, was added to each well. • 3. The plates were sealed. • 4. The plates were allowed to sonicate for 1 hour. • 5. The plates were shook on a plate orbital shaker for up to 6 hours. • 6. The plates were spinned at 5000 rpm (6000×G) overnight. • 7. Standard curves were prepared by adding 5 μl of stock solutions to wells according to Caffeine Concentrations for Standard Curve table below. • 8. Buffer (10 mM phosphate buffer, pH 7.2, 695 μl) was added. • 9. The plates were sealed. • 10. The plates were loaded onto a TOC/CLND. • 11. The results were analyzed after the run was completed.
The solubility was determined by comparing the reading generated by analysis of the sample to the standard curve. The value was then divided by the number of nitrogens contained in the compound. Corrections for impurities during the synthesis were included in the number of nitrogens. The resulting value was the reported solubility.

[2] = Determination of Thermodynamic Solubility; format: physicochemical; settings: for solubility: thermodynamic from solid
Description: Aqueous pH 7.4 and PEG 300 samples were tested at 25° C. Excess amount of the bulk drug was weighed out and mixed with an aliquot of target media in a clear glass vial (n=3/solvent). The vial was capped, wrapped with aluminum foil, and tumbled in a 25° C. water bath. When equilibration was completed, the samples were removed from the water bath and the final pH was measured, if applicable. The samples were centrifuged at 25° C. at 3000 rpm for 20 minutes. The supernatant was filtered through 4 mm 0.45 μm PTFE syringe filters. The filtrate was assayed after appropriate dilution (no dilution required for aqueous samples). The concentration of the sample was calculated against a calibration curve for the compound.
Solubility in pH 7.4 buffer was carried out as described above, except samples were not centrifuged before filtration. All other experimental steps were the same. PEG 300 and PEG 400 solubility were done at ambient temperature. Excess amount of the bulk drug was weighed out and mixed with an aliquot of target media in a clear glass vial with a small stir bar (n=3). The vials were placed on the stirrer at ˜500 rpm and allowed to equilibrate over the weekend. Samples were filtered through 13 mm 0.45 μm GHP syringe filters. The filtrate was assayed after appropriate dilutions, and concentrations determined against a calibration curve for the compound.

[3] = target: T1, cKIT (Homo sapiens, UniProt P10721); assay: HTRF in vitro kinase assay, cKIT; format: biochemical; settings: 1 mM ATP
T1 construct: GST
Description: To determine the activity of the various kinases, a homogenous time-resolved fluorescence (HTRF) in vitro kinase assay was used. (Mathis, G., HTRF(R) Technology. J Biomol Screen, 1999. 4(6): p. 309-314; Alfred J. Kolb, Paul V. Kaplita, David J. Hayes, Young-Whan Park, Christine Pernell, John S. Major and Gerard Mathis, Drug Discovery Today, 1998, 3, 333-342.)
For example for KDR, cKIT, FLT1, CSF1R and FTL3, purified enzyme was mixed with 0.5 μM N-biotinylated substrate (Biotin-Ahx-[…]-amide (SEQ. ID. 1)), various concentrations of inhibitor in reaction buffer (50 mM HEPES, pH 7.1, 10 mM MgCl2, 2 mM MnCl2, 0.1% BSA and 1 mM DTT, 40 μL final volume), ATP (1 mM final conc.) in a black 384-well plate. After 60 minutes incubation at room temperature, the reaction was quenched by addition of a buffered EDTA solution (final approximate concentrations: 30 mM EDTA, 0.1% BSA, 0.1% Triton X-100 and 0.24M KF) and a solution of revelation agents (to give 0.084 ng/well streptavidin-XL-665 (Cis-Bio) and 6.5 ng/well antiphsophotyrosine mAb PT66-K Europium kryptate) was added to the reaction mixture. The quenched reaction was allowed to stand at room temperature for 3 hours and was then read in a time-resolved fluorescence detector (InVision, Perkin-Elmer) at 620 nm and 665 nm sequentially with excitation. The ratio between the signal of 620 nm and 665 nm was used in the calculation of the IC50.

[4] = target: T2, CYP3A4 (Homo sapiens, UniProt P08684); assay: CYP 3A4 Assay (Luc, luminescence, human liver microsomes); format: in vitro ADME; settings: human liver microsomes 0.4 mg/mL, substrate LUC-LIPA
T2 construct: The incubations consisted of human liver microsomal protein at 0.4 mg/ml; from tissue; host or cells: human liver microsomes
Description: Each assay was preformed in ½ well plates. Test compounds were examined at six concentrations in DMSO that were serial diluted to: 2, 0.6, 0.2, 0.07, 0.02, and 0.007 mM (from left to right) and at 100×; 0.5 ul of these dilutions were added to two empty assay plates (resulting in final assay concentrations of 20, 6, 2, 0.7, 0.2, and 0.07 uM. The control and vehicle were added to the plate at 100× with the same dilution scheme.
The incubations consisted of human liver microsomal protein at 0.4 mg/ml in 100 mM KPO4 buffer, 125 uM NADPH and Regeneration mix in phosphate buffer at pH 7.4.
CYP3A4 requires a pre-incubation using the following recipe:
• CYP3A4—5 μM LUC-LIPA in 100 mM phosphate buffer pH 7.4 • Assay Procedure for CYP3A4: • 1. 40 uL of the Pre-incubation Mixture was added to all wells of the assay plates. • 2. Plates were pre-incubated for 10 minutes at 37° C., with shaking or rocking. (No pre-read is necessary for the luminescence assays CYP2C9 and CYP3A4). • 3. 10 μL of Substrate Solution was added to all wells of the assay plates. • 4. Plates were incubated for an additional 25 minutes at 37° C., with shaking or rocking. • 5. added 50 μl of stop/developer from respective kits, and incubated for 20 minutes to 2 hours with shaking at room temperature prior to reading. […]

T1 sequence (P10721 544-976 limits assumed): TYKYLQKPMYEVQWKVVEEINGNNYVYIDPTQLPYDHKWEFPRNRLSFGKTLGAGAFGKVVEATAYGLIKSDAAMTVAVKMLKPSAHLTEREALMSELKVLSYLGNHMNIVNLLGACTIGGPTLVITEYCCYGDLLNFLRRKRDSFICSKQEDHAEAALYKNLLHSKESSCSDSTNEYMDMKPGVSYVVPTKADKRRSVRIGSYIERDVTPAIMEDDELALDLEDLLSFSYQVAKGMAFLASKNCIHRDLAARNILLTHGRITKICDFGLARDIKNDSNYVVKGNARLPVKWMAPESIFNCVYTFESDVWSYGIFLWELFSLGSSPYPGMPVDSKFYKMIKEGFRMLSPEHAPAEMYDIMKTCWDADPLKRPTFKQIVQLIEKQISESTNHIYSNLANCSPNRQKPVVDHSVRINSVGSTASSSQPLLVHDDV
T2 sequence (P08684 whole entry): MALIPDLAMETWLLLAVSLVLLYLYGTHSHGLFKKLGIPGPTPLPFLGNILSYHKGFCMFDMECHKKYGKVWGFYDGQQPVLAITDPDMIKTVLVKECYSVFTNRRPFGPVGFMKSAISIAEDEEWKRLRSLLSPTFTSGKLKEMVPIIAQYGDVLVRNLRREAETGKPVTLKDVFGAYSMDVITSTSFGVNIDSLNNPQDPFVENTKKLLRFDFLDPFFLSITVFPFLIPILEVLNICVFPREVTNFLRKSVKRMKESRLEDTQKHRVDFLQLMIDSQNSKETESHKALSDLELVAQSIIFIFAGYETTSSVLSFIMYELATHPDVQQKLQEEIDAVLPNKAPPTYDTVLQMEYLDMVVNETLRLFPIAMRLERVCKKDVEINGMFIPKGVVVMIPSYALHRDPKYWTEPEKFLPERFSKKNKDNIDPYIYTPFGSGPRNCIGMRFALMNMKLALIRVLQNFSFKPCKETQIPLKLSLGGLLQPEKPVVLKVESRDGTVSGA

solubility [1]: 70.8 µM (≈ 37.8 µg/mL)
solubility ([2]; PEG 300, 25 °C, organic solvent or mixture, PEG 300, Example 2 at 25° C., Example 1 at ambient temperature, read-out: Solubility (PEG300)): 132 mg/mL (≈ 247 mM)
Solubility (PEG300) ([2]; PEG 300, Example 2 at 25° C., Example 1 at ambient temperature): >125 mg/mL
solubility ([2]; PEG 400, organic solvent or mixture, PEG 400, ambient temperature, read-out: Solubility PEG 400): 124 mg/mL (≈ 232 mM)
solubility ([2]; phosphate buffer, 25 °C, pH 7.4, aqueous buffer, 50 mM phosphate pH 7.4 buffer, 25° C., read-out: Solubility pH 7.4): 0.0171 mg/mL (≈ 0.032 mM)
IC50 [3]: 35 nM
IC50 [4]: > 20 µM
SMILES: CCN(CC)CCCNC(=O)c1cnc(N)c2c(-c3ccc(NC(=O)Nc4cccc(F)c4)cc3)csc12 [Example 1, 4-amino-N-[3-(diethylamino)propyl]-3-(4-{[(3-fluorophenyl)carbamoyl]amino}phenyl)thieno[3,2-c]pyridine-7-carboxamide]
